For this test, the target named is hydrilla PDS position 304 Arginine, His-tagged (Hydrilla verticillata, UniProt Q66PY0). Kind of test: Cross-resistance testing, His-tagged column-purified PDS (Table 2A). It counts as biochemical. Particulars: for R/S: Arginine at 304 (reference), Table 2A; for IC50: Arginine at 304, His-tagged, column-purified PDS, read-out: I50. The source says:
The alternative approach utilized His-tagging and column purification of the mutant PDS protins.
In order to express pds in bacteria, deletion clones were made for each of the three potential start codons with and without ATG. […] The forward primers used were ORF (5′ […] 3′), ORF-ATG (5′ […] 3′), 3_ORF (5′[…] 3′) and 3_ORF-ATG (5′ […] 3′). The resulting plasmids were named pORF, pORF-ATG (minus ATG codon), p3ORF and p3ORF-ATG. The pds-containing EcoRI-fragments of these plasmids were subcloned into the EcoRI site of pRSETb vector (Invitrogen) for Histidine tagging and bacterial expression. The resulting constructs were pHy4SET, pHy4SET-ATG (minus ATG), p3ORFSET and p3ORFSET-ATG.
Primers used to replace Arg by His were Hyd-His-For (5′[…] 3′) and Hyd-His-Rev (5′ […] 3′); to replace Arg by Thr we used primers Hyd-Thr-For (5′[…] 3′) and Hyd-Thr-Rev (5′[…] 3′); to replace Arg by Ser we used Hyd-Ser-For (5′[…] 3′) and Hyd-Ser-Rev (5′[…] 3′); and Arg was replaced by Cys using Hyd-Cys-For (5′[…] 3′) and Hyd-Cys-Rev (5′[…] 3′). Resulting plasmids were named: p3ORFHisSet-ATG, p3ORFThrSet-ATG, p3ORFSerSet-ATG and p3ORFCysSet-ATG.
All pRSET derived constructs were transformed into BL21(DE3)pLysS cells (Invitrogen), induced with IPTG for protein expression, and the His tag overproduced proteins analyzed by Western blot using Anti-HisG antibody (Invitrogen, cat. #R940-25).
BL21(DE3)pLysS cells were grown overnight in 500 ml Luria Broth (LB) supplemented with carbenicillin (100 mg/l) and cloramphenicol (60 mg/l) at 37° C., and induced with 0.3 mM isopropylthio-β-D-galactoside (IPTG) for 3 hrs. Cells were lysed using a French press (Spectronics Instrument) at 20,000 psi and overexpressed PDS was purified on a nickel activated Hitrap Chelating HP column according to the manufacturers instructions (Amersham Bioscience).
Generally, PDS protein fractions prepared as described above (Non-His-tagged and His-tagged) were mixed with a soluble fraction from phytoene-producing E. coli cells. […] This E. coli strain was separately cultured and lysed, and its soluble components collected (“the EB extract”) in a fashion similar to that described above for the PDS-producing cells.
His-tagged, purified proteins prepared as described above were transferred to the assay buffer on a PD10 column (Amersham Bioscience) and the concentration was adjusted to 100 μg/mL. Crude extracts containing phytoene were produced in E. coli JM101/pACCRT-EB containing geranylgeranyl pyrophosphate synthase and phytoene synthase enzymes from Erwinia uredova as described above. The reaction assays consisted of 50 μg PDS in 500 μl of assay buffer (200 mM Sodium Phosphate, pH 7.2) and 500 μl of pACCRT-EB extract. The herbicide (10 μL in MeOH) was added to the 500 μl of PDS extract and incubated on ice for 15 minutes prior to mixing it with the EB extract. […] Dose-response curves were fitted to the four-parameter logistic function. […] I^50 values were calculated from the regressions.

Sequence of hydrilla PDS position 304 Arginine, His-tagged (Q66PY0 77-580): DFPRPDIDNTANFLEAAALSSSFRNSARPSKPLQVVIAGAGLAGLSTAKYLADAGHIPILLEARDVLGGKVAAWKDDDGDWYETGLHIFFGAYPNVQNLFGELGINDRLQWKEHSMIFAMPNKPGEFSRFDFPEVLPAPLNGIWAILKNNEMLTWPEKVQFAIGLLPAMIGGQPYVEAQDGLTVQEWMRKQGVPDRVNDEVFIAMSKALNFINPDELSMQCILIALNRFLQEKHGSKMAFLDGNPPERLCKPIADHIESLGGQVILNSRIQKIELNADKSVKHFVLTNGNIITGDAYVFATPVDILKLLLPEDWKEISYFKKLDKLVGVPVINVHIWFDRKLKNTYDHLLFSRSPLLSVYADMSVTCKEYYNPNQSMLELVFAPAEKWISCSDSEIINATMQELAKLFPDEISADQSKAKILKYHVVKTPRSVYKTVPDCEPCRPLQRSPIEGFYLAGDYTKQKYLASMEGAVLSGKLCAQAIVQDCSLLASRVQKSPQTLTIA

Take `CCC(Oc1ccc(F)c(C(F)(F)F)c1)C(=O)NCc1ccccc1` (centres unmarked) [Beflubutamid]: the R/S is reported as 1 and the IC50 stood at 72 µM.

As for `O=C(Nc1ccc(F)cc1F)c1cccnc1Oc1cccc(C(F)(F)F)c1` [Diflufenican], the IC50 worked out at 101 µM. This molecule also showed a R/S (30 min) of 1.

For `O=C1C(Cl)C(CCl)CN1c1cccc(C(F)(F)F)c1` (centres unmarked) [Fluorochloridone], the IC50 was 130 µM. Moreover, the R/S (30 min) is given as 1. For `CNC1=C(c2cccc(C(F)(F)F)c2)C(=O)C(c2ccccc2)O1` (centres unmarked) [Flurtamone] the same measures were 300 µM and 1.

Take `CNc1cnn(-c2cccc(C(F)(F)F)c2)c(=O)c1Cl` [Norflurazon]: the IC50 worked out at 50 µM. Same read-out and setting: the value for `O=C(Nc1ccc(F)cc1)c1cccc(Oc2cccc(C(F)(F)F)c2)n1` [Piconilafen, Picolinafen] was 327 µM.

With Fluridone, the R/S (30 min) was 1.

These data come from patent publication US20110098180A1, “Herbicide-Resistant Plants, And Polynucleotides And Methods For Providing Same” (United States Department of Agriculture, priority 2002, published 2011).
